Experiments:
[1] = system: acetaminophen hepatotoxicity; experiment: Effect of BHT and BHA on hepatotoxicity of acetaminophen (general finding); conditions: in vivo
Source text: Because the general population consumes large amounts of these chemicals daily, because of their presence in a wide variety of food products, the likelihood of an increased incidence of hepatoxicity in persons taking repeated dosages of acetaminophen is self-evident.

hamsters [2] = experiment: Enhancement of acetaminophen toxicity by BHA and protection by methionine sulfoxide in hamsters; assay type: in vivo, hamster
Procedure: Hamsters weighing about 70 gm. each were divided into five groups of animals. […] All deaths occurred within 48 hours. The survivors all were alive one week later when examined again.
Methionine sulfoxide protects the hamsters against the enhanced acetaminophen toxicity up to dosages of about 200 mg/kg of BHA.

[3] = Enhancement of acetaminophen toxicity by BHT and protection by methionine sulfoxide in hamsters; assay type: in vivo, hamster; conditions: hamster, in vivo, ip; i.p. mixture of 300 mg/kg acetaminophen and 600 mg/kg BHT; within 24 hours; read-out: deaths
Procedure: (§1) Hamsters weighing about 70 gm. each were divided into five groups of animals. An aqueous solution (ca. 0.7 ml) of […]. (600 mg/kg) of acetaminophen and an amount of methionine sulfoxide listed in the table below, was administered intraperitoneally to each hamster. All deaths occurred within 48 hours. The survivors all were alive one week later when examined again.
(§2) Following the above procedure, hamsters were given i.p. either 300 mg/kg of acetaminophen or 600 mg/kg BHT.

hamsters [4] = experiment: as above; assay type: in vivo, hamster
Procedure: as §1, §2

mice [5] = conditions: administered up to one hour after acute toxic amounts of acetaminophen; cited from earlier work
mice [6] = conditions: cited from earlier work
inbred mice = conditions: suggested for humans from studies with inbred mice; cited from earlier work
hamsters [7] = experiment: animal or person; assay type: in vivo, hamster; conditions: for % Deaths: deaths within 48 hours; for hamsters protected from the otherwise lethal dosage of acetaminophen: acetaminophen 600 mg/kg i.p.
Procedure: as §1

humans = conditions: in vivo; cited from earlier work
[8] = system: hepatotoxicity after an overdose of acetaminophen; conditions: administered within 16 hours after an overdose of acetaminophen; clinical study; cited from earlier work
[9] = system: man and experimental animals; conditions: cited from earlier work
[10] = system: acetaminophen hepatotoxicity; conditions: cited from earlier work; for effect on acetaminophen hepatotoxicity: J. Kelleher et al.
man = conditions: vitamin C with acetaminophen, cited from earlier work
vitamin E deficient rats = conditions: cited from earlier work
[11] = i.p. mixture of 300 mg/kg acetaminophen and 100 mg/kg BHA, all hamsters
[12] = acetaminophen 300 mg/kg i.p. alone

For `COc1ccc(O)c(C(C)(C)C)c1` [BHA, butylated hydroxyanisole], the “effect on hepatotoxicity of acetaminophen” value [1] was “profoundly enhance its hepatotoxicity”, the deaths (hamsters [2]; BHA 100-300 mg/kg i.p. alone) was “no deaths occurred” and the incidence of deaths (hamsters [2]; higher amounts of BHA (than 100 mg/kg) with acetaminophen) was “higher incidence of deaths”. The survival (hamsters [2]; i.p. mixture of 300 mg/kg acetaminophen and 100 mg/kg BHA) was “most survive”, the coma (hamsters [2]; [11]) was “go into a coma” and the time to coma (hamsters [2]; [11]) was 15 to 20 min.

With `Cc1cc(C(C)(C)C)c(O)c(C(C)(C)C)c1` [BHT, butylated hydroxytoluene] the mortality at 24 h [3] was 100%, the deaths (hamsters [4]; BHT 600 mg/kg i.p. alone) was “No deaths occurred” and the “enhancement of acetaminophen toxicity” value (hamsters [4]; i.p. mixture of 300 mg/kg acetaminophen and 600 mg/kg BHT) was “profound enchancement of acetaminophen toxicity”. The “effect on hepatotoxicity of acetaminophen” value [1] was “profoundly enhance its hepatotoxicity”.

For `C[S+](C)[O-]` [Dimethyl sulfoxide], the “protection against the hepatotoxic effects of acetaminophen” value (mice [5]) is listed as “protect mice against the hepatotoxic effects of acetaminophen” and the “protection against CCl4 hepatotoxicity” value (mice [6]) is listed as “inability of DMSO to protect mice”.

For `CC(=O)Nc1ccc(O)cc1` [acetaminophen], the deaths (hamsters [4]; [12]) is listed as “No deaths occurred”, the cataracts (inbred mice) is listed as “can cause cataracts in humans” and the “% Deaths” value (hamsters [7]; acetaminophen 600 mg/kg i.p. alone (methionine sulfoxide 0), 17 animals) is listed as 94%. The deaths (hamsters [2]; [12]) was “no deaths occurred” and the hepatic necrosis (humans) was “can cause massive hepatic necrosis”.

For `CC(=O)N[C@@H](CS)C(=O)O` [acetylcysteine], the prevention of hepatotoxicity [8] is given as “effective in preventing hepatotoxicity”.

For `CCO` [alcohol], the “potentiation of acetaminophen hepatotoxicity” value (humans) is listed as “markedly potentiate the hepatotoxicity”.

For `NCCS` [cysteamine], the “protection against the hepatotoxicity of acetaminophen” value (from here on “protection against the hepatotoxicity”) [9] is given as “varying degrees of protection”.

In the case of `N[C@@H](CS)C(=O)O` [cysteine], the “protection against the hepatotoxicity” value [9] is listed as “varying degrees of protection”.

For `C[S+]([O-])CC[C@H](N)C(=O)O` (stereo partly drawn) [methionine sulfoxide], the deaths (hamsters [4]; methionine sulfoxide 150 mg/kg concurrently with 300 mg/kg acetaminophen and 600 mg/kg BHT) was “no deaths occurred”, the ED50 (hamsters [7]; Mesocricetus auratus, ip) was ~65 mg/kg and the “% Deaths” value (hamsters [7]; methionine sulfoxide 50 mg/kg i.p. with acetaminophen 600 mg/kg, 15 animals) was 60%. The “% Deaths” value (hamsters [7]; methionine sulfoxide 100 mg/kg i.p. with acetaminophen 600 mg/kg, 17 animals) was 23.5%, the “hamsters protected from the otherwise lethal dosage of acetaminophen” value (from here on “hamsters protected”) (hamsters [7]; methionine sulfoxide 100 mg/kg) was “over 75%” and the “% Deaths” value (hamsters [7]; methionine sulfoxide 200 mg/kg i.p. with acetaminophen 600 mg/kg, 17 animals) was 0%. For the same compound, the “hamsters protected” value (hamsters [7]; methionine sulfoxide 200 mg/kg) was “protected all of the hamsters”, the “% Deaths” value (hamsters [7]; methionine sulfoxide 400 mg/kg i.p. with acetaminophen 600 mg/kg, 8 animals) was 0% and the “hamsters protected” value (hamsters [7]; methionine sulfoxide 400 mg/kg) was “protected all of the hamsters”. For the same compound, the “coma produced by the combination of acetaminophen and BHA” value (hamsters [2]; methionine sulfoxide treated, survivors) was “manifested even in the survivors” and the “dosage of BHA up to which hamsters are protected against the enhanced acetaminophen toxicity” value (hamsters [2]; methionine sulfoxide with acetaminophen and BHA, value is BHA dosage (up to about)) was “about 200 mg/kg”.

For `CSCC[C@H](N)C(=O)O` [methionine], the “protection against the hepatotoxicity” value [9] is listed as “varying degrees of protection”.

In the case of `CCCOC(=O)c1cc(O)c(O)c(O)c1` [propyl gallate], the “effect on acetaminophen hepatotoxicity” value [10] is listed as “reduce hepatotoxicity”.

For `[Se]` [selenium], the “protection against the hepatotoxicity” value [9] is listed as “varying degrees of protection”.

For `O=C1O[C@H]([C@@H](O)CO)C(O)=C1O` [vitamin C, ascorbic acid], the “protection against the hepatotoxic effects of acetaminophen” value ([10]; Raghuram et al.) is listed as “may provide such protection”, the “apparent half-life of drug (acetaminophen)” value (man; by rate of secretion in the urine) is listed as “did not affect the apparent half-life” and the “excretion rate of acetaminophen sulfate” value (man) is listed as “rapid and pronounced decrease”.

For `Cc1c(C)c2c(c(C)c1O)CCC(C)(CCCC(C)CCCC(C)CCCC(C)C)O2` (stereo not drawn) [vitamin E, α-tocopherol], the “effect on acetaminophen hepatotoxicity” value [10] is listed as “reduce hepatotoxicity”, the “protection against the hepatotoxicity” value [9] is listed as “varying degrees of protection” and the “protection against the hepatotoxic effects of acetaminophen” value (vitamin E deficient rats) is listed as “provides such protection”.

In the case of dimethylmercaptol, the “protection against the hepatotoxicity” value [9] is given as “varying degrees of protection”.

— US4314989A, “Methionine sulfoxide amflioration of acetaminophen toxicity” (priority 1980, dated 1982)
